Measurements from US20230407243A1, “GENETIC PLATFORM TO INVESTIGATE THE FUNCTIONS OF BACTERIAL DRUG EFFLUX PUMPS” (priority 2022, published 2023).
Read-outs that look alike come from different tables or passages of the source.

Key:
Type in all cases: cell-based, Escherichia coli
[1] = test system: EKO-35 araC::acrBD408A; test: MIC susceptibility profiling, efflux platform; conditions: for Fold change of MICs: EKO-35 araC::acrBD408A compared to EKO-35; for Minimum Inhibitory Concentration, EKO-35 araC::acrBD408A / MIC: Table 13B, non-porinated, technical duplicate; for MIC: Escherichia coli, read-out: Minimum Inhibitory Concentration, EKO-35 araC::acrBD408A
In short: (§1)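 Turbidity (OD600, pre-incubation subtracted) defined growth after 18 h at 37 °C in MHB II. The inoculum was diluted 1/2000 from an OD600 ~1.0 PBS suspension of an overnight LB culture. Compounds were run as duplicate twofold dilutions.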

[2] = test system: EKO-35 araC::acrB; test: MIC susceptibility profiling, efflux platform; conditions: for Fold change of MICs: EKO-35 araC::acrB compared to EKO-35
In short: as §1

[3] = test system: EKO-35 araC::acrD; test: MIC susceptibility profiling, efflux platform; conditions: for Fold change of MICs: EKO-35 araC::acrD compared to EKO-35
In short: as §1

[4] = test system: EKO-35 araC::emrKY; test: MIC susceptibility profiling, efflux platform; conditions: for Fold change of MICs: EKO-35 araC::emrKY compared to EKO-35
In short: as §1

[5] = test system: EKO-35 araC::mdtBC; test: MIC susceptibility profiling, efflux platform; conditions: for Fold change of MICs: EKO-35 araC::mdtBC compared to EKO-35; for Minimum Inhibitory Concentration, EKO-35 araC::mdtBC: Table 13B, non-porinated, technical duplicate
In short: as §1

[6] = test system: EKO-35 araC::mdtEF; test: MIC susceptibility profiling, efflux platform; conditions: for Fold change of MICs: EKO-35 araC::mdtEF compared to EKO-35
In short: as §1

[7] = test system: EKO-35 araC::mexCD (MexCD from P. aeruginosa); test: MIC susceptibility profiling, efflux platform; conditions: for Fold change of MICs: EKO-35 araC::mexCD compared to EKO-35; for Minimum Inhibitory Concentration, EKO-35 araC::mexCD / MIC: Table 13B, non-porinated, technical duplicate; for MIC: read-out: Minimum Inhibitory Concentration, EKO-35 araC::mexCD
In short: as §1

[8] = test system: K-12 (empty pCA24N); test: MIC of strains harboring ASKA plasmids; conditions: 0.1 mM IPTG; for MIC, K-12 (empty pCA24N), Chlor +: 25 μg/mL chloramphenicol selection; for MIC, K-12 (empty pCA24N), Chlor −: no plasmid selection; for MIC: K-12 empty pCA24N
[9] = test system: EKO-35 acrBD408A; conditions: EKO-35 acrBD408A
In short: (§2)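 Inocula prepared from resuspended colonies were exposed to PAβN or NMP combined with antibiotics in MHB II checkerboards. Growth was scored by OD600 to define MICs. FICI then classified the interaction, with values under 0.5 counted as synergistic.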

[10] = test system: EKO-35
In short: as §2

[11] = test system: wild-type E. coli K-12; conditions: K-12
In short: as §2

[12] = test system: ΔtolC; conditions: ΔtolC
In short: as §2

[13] = Table 13A, non-porinated, technical duplicate
[14] = Table 13B, non-porinated, technical duplicate
[15] = Escherichia coli, Chlor + (25 μg/mL chloramphenicol), read-out: MIC
[16] = antibiotic alone (PAβN checkerboard)
[17] = antibiotic in combination with PAβN

In the case of `N#Cc1ccc(-c2c(NC(=O)C(Cl)Cl)oc(-c3cccs3)c2C#N)cc1` [compound 2], the “Fold change of MICs” value [1] is reported as 1 fold, the “Minimum Inhibitory Concentration, EKO-35 araC::acrBD408A” value [1] is reported as 320 µg/mL and the “Fold change of MICs” value [2] is reported as 1 fold. For the same molecule, the “Minimum Inhibitory Concentration, EKO-35 araC::acrB” value [2, 13] was 320 µg/mL, the “Fold change of MICs” value [3] was 1 fold and the “Minimum Inhibitory Concentration, EKO-35 araC::acrD” value [3, 13] was 320 µg/mL. For the same molecule, the “Fold change of MICs” value [4] was 1 fold, the “Minimum Inhibitory Concentration, EKO-35 araC::emrKY” value [4, 14] was 320 µg/mL and the “Fold change of MICs” value [5] was 1 fold. The “Minimum Inhibitory Concentration, EKO-35 araC::mdtBC” value [5] was 320 µg/mL, the “Fold change of MICs” value [6] was 1 fold and the “Minimum Inhibitory Concentration, EKO-35 araC::mdtEF” value [6, 13] was 320 µg/mL. The “Fold change of MICs” value [7] was 1 fold, the “Minimum Inhibitory Concentration, EKO-35 araC::mexCD” value [7] was 320 µg/mL and the “MIC, K-12 (empty pCA24N), Chlor +” value [8] was over 5 μg/mL. For the same molecule, the “MIC, K-12 (empty pCA24N), Chlor −” value [8] was over 5 μg/mL.
For `Cn1cc(Br)c(-c2cccc(NC(=O)Nc3ccc(OC(F)(F)F)cc3)c2)n1` [compound 14], the “Fold change of MICs” value [1] was 1 fold, the “Minimum Inhibitory Concentration, EKO-35 araC::acrBD408A” value [1] was 320 µg/mL and the “Fold change of MICs” value [2] was 1 fold. For the same molecule, the “Minimum Inhibitory Concentration, EKO-35 araC::acrB” value [2, 13] was 320 µg/mL, the “Fold change of MICs” value [3] was 1 fold and the “Minimum Inhibitory Concentration, EKO-35 araC::acrD” value [3, 13] was 320 µg/mL. For the same molecule, the “Fold change of MICs” value [4] was 1 fold, the “Minimum Inhibitory Concentration, EKO-35 araC::emrKY” value [4, 14] was 320 µg/mL and the “Fold change of MICs” value [5] was 1 fold. For the same molecule, the “Minimum Inhibitory Concentration, EKO-35 araC::mdtBC” value [5] was 320 µg/mL, the “Fold change of MICs” value [6] was 1 fold and the “Minimum Inhibitory Concentration, EKO-35 araC::mdtEF” value [6, 13] was 320 µg/mL. For the same molecule, the “Fold change of MICs” value [7] was 1 fold, the “Minimum Inhibitory Concentration, EKO-35 araC::mexCD” value [7] was 320 µg/mL and the “MIC, K-12 (empty pCA24N), Chlor +” value [8] was over 5 μg/mL. The “MIC, K-12 (empty pCA24N), Chlor −” value [8] was over 5 μg/mL.
`O=C(Nc1ccccc1C(=O)Nc1nnc(C(F)(F)F)s1)c1ccccc1Cl` [compound 19] was tested, and the “Fold change of MICs” value [1] was 1 fold, the “Minimum Inhibitory Concentration, EKO-35 araC::acrBD408A” value [1] was 320 µg/mL and the “Fold change of MICs” value [2] was 1 fold. For the same molecule, the “Minimum Inhibitory Concentration, EKO-35 araC::acrB” value [2, 13] was 320 µg/mL, the “Fold change of MICs” value [3] was 1 fold and the “Minimum Inhibitory Concentration, EKO-35 araC::acrD” value [3, 13] was 320 µg/mL. The “Fold change of MICs” value [4] was 1 fold, the “Minimum Inhibitory Concentration, EKO-35 araC::emrKY” value [4, 14] was 320 µg/mL and the “Fold change of MICs” value [5] was 1 fold. For the same molecule, the “Minimum Inhibitory Concentration, EKO-35 araC::mdtBC” value [5] was 320 µg/mL, the “Fold change of MICs” value [6] was 1 fold and the “Minimum Inhibitory Concentration, EKO-35 araC::mdtEF” value [6, 13] was 320 µg/mL. For the same molecule, the “Fold change of MICs” value [7] was 1 fold, the “Minimum Inhibitory Concentration, EKO-35 araC::mexCD” value [7] was 320 µg/mL and the “MIC, K-12 (empty pCA24N), Chlor +” value [8] was over 5 μg/mL. For the same molecule, the “MIC, K-12 (empty pCA24N), Chlor −” value [8] was over 5 μg/mL.
For `CO[C@@H]1[C@@H](OC(N)=O)[C@@H](O)[C@H](Oc2ccc3c(O)c(NC(=O)c4ccc(O)c(CC=C(C)C)c4)c(=O)oc3c2C)OC1(C)C` [novobiocin], the “Fold change of MICs” value [1] was 1 fold, the MIC [1] was 3.12 mg/L and the “Fold change of MICs” value [2] was 128 fold. The “efflux pump-mediated resistance vs EKO-35” value ([3]; AcrD) was “confirmed”, the “Fold change of MICs” value [3] was 64 fold and the MIC ([3]; Escherichia coli, Table 13A, non-porinated, technical duplicate, read-out: Minimum Inhibitory Concentration, EKO-35 araC::acrD) was 200 mg/L. The “Fold change of MICs” value [4] was 1 fold, the MIC ([4]; Escherichia coli, Table 13B, non-porinated, technical duplicate, read-out: Minimum Inhibitory Concentration, EKO-35 araC::emrKY) was 3.12 mg/L and the “Fold change of MICs” value [5] was 4 fold. The “efflux pump-mediated resistance vs EKO-35” value ([5]; MdtBC) was “conferred resistance”, the “Fold change of MICs” value [6] was 16 fold and the MIC ([6]; Escherichia coli, Table 13A, non-porinated, technical duplicate, read-out: Minimum Inhibitory Concentration, EKO-35 araC::mdtEF) was 50 mg/L. The “Fold change of MICs” value [7] was 8 fold, the MIC [7] was 25 mg/L and the MIC [8, 15] was 200 mg/L. The Effect ([9]; PAβN + antibiotic) was “Synergistic”, the FICI ([9]; PAβN + antibiotic) was 0.375 and the “MICb Alone” value [9, 16] was 8 µg/mL. For the same molecule, the “MICb Combined” value [9, 17] was 2 µg/mL, the Effect ([10]; EKO-35, PAβN + antibiotic) was “Synergistic” and the FICI ([10]; EKO-35, PAβN + antibiotic) was 0.375. For the same molecule, the “MICb Alone” value ([10]; EKO-35, antibiotic alone (PAβN checkerboard)) was 4 µg/mL, the “MICb Combined” value ([10]; EKO-35, antibiotic in combination with PAβN) was 1 µg/mL and the “interaction of PAβN in combination with the labelled antibiotic (FICI)” value ([10]; efflux-deficient strains EKO-35, EKO-35 acrBD408A, ΔtolC) was “synergized”. The Effect ([11]; PAβN + antibiotic) was “Synergistic”, the FICI ([11]; PAβN + antibiotic) was 0.188 and the “MICb Alone” value [11, 16] was 128 µg/mL. The “MICb Combined” value [11, 17] was 8 µg/mL, the Effect ([12]; PAβN + antibiotic) was “Synergistic” and the FICI ([12]; PAβN + antibiotic) was 0.500. The “MICb Alone” value [12, 16] was 2 µg/mL and the “MICb Combined” value [12, 17] was 0.5 µg/mL.
For `COc1cc(Cc2cnc(N)nc2N)cc(OC)c1OC` [trimethoprim], the “Fold change of MICs” value [1] was 0 fold, the MIC [1] was 0.098 mg/L and the “Fold change of MICs” value [2] was 8 fold. The MIC ([2]; Escherichia coli, Table 13A, non-porinated, technical duplicate, read-out: Minimum Inhibitory Concentration, EKO-35 araC::acrB) was 1.56 mg/L, the “Fold change of MICs” value [3] was 2 fold and the “Fold change of MICs” value [4] was 1 fold. The “Fold change of MICs” value [5] was 1 fold, the “Fold change of MICs” value [6] was 2 fold and the “Fold change of MICs” value [7] was 2 fold. For the same molecule, the MIC [7] was 0.391 mg/L, the MIC [8, 15] was 0.781 mg/L and the MIC ([8]; Escherichia coli, Chlor −, read-out: MIC) was 0.781 mg/L.
For benzalkonium chloride, the “Fold change of MICs” value [1] was 1 fold, the “Minimum Inhibitory Concentration, EKO-35 araC::acrBD408A” value [1] was 0.391 µg/mL and the “Fold change of MICs” value [2] was 32 fold. For the same molecule, the “Minimum Inhibitory Concentration, EKO-35 araC::acrB” value [2, 13] was 12.5 µg/mL, the “Fold change of MICs” value [3] was 1 fold and the “Minimum Inhibitory Concentration, EKO-35 araC::acrD” value [3, 13] was 0.391 µg/mL. For the same molecule, the “Fold change of MICs” value [4] was 1 fold, the “Minimum Inhibitory Concentration, EKO-35 araC::emrKY” value [4, 14] was 0.391 µg/mL and the “Fold change of MICs” value [5] was 1 fold. The “Minimum Inhibitory Concentration, EKO-35 araC::mdtBC” value [5] was 0.391 µg/mL, the “Fold change of MICs” value [6] was 4 fold and the “Minimum Inhibitory Concentration, EKO-35 araC::mdtEF” value [6, 13] was 1.563 µg/mL. For the same molecule, the “Fold change of MICs” value [7] was 2 fold, the “Minimum Inhibitory Concentration, EKO-35 araC::mexCD” value [7] was 0.781 µg/mL and the MIC ([8]; Chlor + (25 μg/mL chloramphenicol)) was 25 mg/L. For the same molecule, the MIC ([8]; Chlor −) was 25 mg/L.
